Values of other authors in paper PMC9344054, “Studies on Chemical Characterization of Ginkgo Amillaria Oral Solution and Its Drug–Drug Interaction With Piceatannol 3′-O-β-D-Glucopyranoside for Injection” (Frontiers in Pharmacology, 2022).

What was measured:
[1] = tested on: most human UGTs, including UGT1A1, 1A3, 1A4, 1A6, 1A7, 1A8, and 1A9; design: method as in Lv et al., 2018; settings: UGT1A1, 1A3, 1A4, 1A6, 1A7, 1A8, 1A9; ref Lv et al., 2018; cited from earlier work
P-glycoprotein = tested on: P-glycoprotein; design: method as in An et al., 2011; Palatini and De Martin, 2016; settings: previous studies; ref An et al., 2011; Palatini and De Martin, 2016; cited from earlier work
[2] = tested on: breast cancer resistance protein; design: method as in An et al., 2011; Palatini and De Martin, 2016; settings: ref An et al., 2011; Palatini and De Martin, 2016; cited from earlier work
human hepatic UGT1A1 = tested on: human hepatic UGT1A1; design: method as in Cao et al., 2017; settings: in vitro; ref Cao et al., 2017; cited from earlier work
human hepatic UGT1A4 = tested on: human hepatic UGT1A4; design: method as in Cao et al., 2017; settings: in vitro; ref Cao et al., 2017; cited from earlier work
[3] = design: method as in Zhao et al., 2006; settings: pretreatment of GBE 100 mg kg−1 for 10 days; ref Zhao et al., 2006; cited from earlier work
UGT1A1 = tested on: UGT1A1; design: method as in Zhang et al., 2021; settings: ref Zhang et al., 2021; cited from earlier work
UGT1A3 = tested on: UGT1A3; design: method as in Zhang et al., 2021; settings: ref Zhang et al., 2021; cited from earlier work
UGT1A6 = tested on: UGT1A6; design: method as in Zhang et al., 2021; settings: ref Zhang et al., 2021; cited from earlier work
UGT1A9 = tested on: UGT1A9; design: method as in Zhang et al., 2021; settings: ref Zhang et al., 2021; cited from earlier work
[4] = design: method as in Fan et al., 2009; settings: ten healthy male volunteers, ref Fan et al., 2009, cited from earlier work

O=c1cc(-c2ccc(O)c(-c3c(O)cc(O)c4c(=O)cc(-c5ccc(O)cc5)oc34)c2)oc2cc(O)cc(O)c12 [amentoflavone]
inhibition toward most human UGTs [1]: strong inhibition

O=c1c(O)c(-c2ccc(O)cc2)oc2cc(O)cc(O)c12 [kaempferol]
inhibition of the P-glycoprotein-mediated efflux of ritonavir (P-glycoprotein): remarkable inhibition | inhibition of breast cancer resistance protein [2]: inhibitor

O=c1cc(-c2ccc(O)c(O)c2)oc2cc(O)cc(O)c12 [luteolin]
inhibition of human hepatic UGT1A1 (human hepatic UGT1A1): inhibited | inhibition of human hepatic UGT1A4 (human hepatic UGT1A4): inhibited

CC(C)NCC(O)COc1cccc2ccccc12 (stereo not shown) [propranolol]
change of AUC of propranolol [3]: significantly reduce | change of C max of propranolol [3]: significantly reduce

O=c1c(O)c(-c2ccc(O)c(O)c2)oc2cc(O)cc(O)c12 [quercetin]
inhibition of UGT1A1 (UGT1A1): moderate inhibitor | inhibition of UGT1A3 (UGT1A3): moderate inhibitor | inhibition of UGT1A6 (UGT1A6): weak inhibitor | inhibition of UGT1A9 (UGT1A9): strong inhibitor | inhibition of human hepatic UGT1A1 (human hepatic UGT1A1): inhibited | inhibition of human hepatic UGT1A4 (human hepatic UGT1A4): inhibited

CC(C)(C)NCC(O)COc1ccc(NC(=O)NC2CCCCC2)cc1 (stereo not shown) [talinolol]
increase of AUC0-24 of talinolol ([4]; repeated ingestion of GBE): 26% | increase of C max of talinolol ([4]; repeated ingestion of GBE): 36% | effect on pharmacokinetics of talinolol ([4]; single dose of GBE orally): did not affect
